Patent publication US20030129180A1, “Products and methods for treating microbial infections” (The Proctor & Gamble Company, priority 2001, published 2003)

Tests used:
T. mentagrophytes = assay: Relative growth of pre-germinated arthrospores in ESD broth tubes; assay type: cell-based; set-up: key: −: - (no growth); relative scale from - (no growth) to +++ (maximal growth); relative scale from - (no growth) to +++ (maximal growth); +++ (maximal growth); details: clotrimazole control, 20 μ/ml per tube, 26° C.
Method: (§1) Purified arthrospore suspensions of T. mentagrophytes or T. rubrum (prepared as per L. R. Wright et al., 1983, J. Antimicrob. Chemotherapy 12:317-327), diluted to a concentration of 1×10^6 cfu/ml in Emmon's modification of Sabouraud Dextrose Broth (ESD—R. Atlas, 1997, Handbook of microbiological media, CRC Press Inc., Boca Raton, Fla.), are incubated for 6 hours at 26° C. or 30° C., respectively, to pre-germinate spores. Enzyme preparations of chitinase (Sigma Cat. No. C-1525) and β1-1,3-glucanase (Sigma Cat. No. L-2524) are diluted into 3 ml volumes of ESD in capped glass tubes, to final concentrations of each enzyme ranging from 0 to 100 ppm. Clotrimazole controls are also prepared, to a final concentration of 20 μ/ml per tube.
(§2) Each tube is then inoculated with 10 μl (1×10^4 cfu) of either the T. mentagrophytes or T. rubrum pre-germinated arthrospore suspension, followed by incubation on a shaker at 200 rpm, at 26° C. or 30° C., respectively, for a total of 41 hours.

T. rubrum = assay: as above; assay type: cell-based; set-up: key: −: - (no growth); relative scale from - (no growth) to +++ (maximal growth); relative scale from - (no growth) to +++ (maximal growth); +++ (maximal growth); details: clotrimazole control, 20 μ/ml per tube, 30° C.
Method: as §1, §2

Clc1ccccc1C(c1ccccc1)(c1ccccc1)n1ccnc1 [clotrimazole]
−: Growth, T. mentagrophytes, 18 hours (T. mentagrophytes; 18 hours) | Growth, T. mentagrophytes, 41 hours (T. mentagrophytes; 41 hours) | Growth, T. rubrum, 18 hours (T. rubrum; 18 hours) | Growth, T. rubrum, 41 hours (T. rubrum; 41 hours)
